How the values were obtained:
[1] = target: T1, Adenosine receptor A2b (Homo sapiens, UniProt P29275); assay: Displacement of [3H]PSB298 from human recombinant adenosine A2B receptor expressed in CHO cells; assay type: cell-based
T1 sequence (P29275 whole entry): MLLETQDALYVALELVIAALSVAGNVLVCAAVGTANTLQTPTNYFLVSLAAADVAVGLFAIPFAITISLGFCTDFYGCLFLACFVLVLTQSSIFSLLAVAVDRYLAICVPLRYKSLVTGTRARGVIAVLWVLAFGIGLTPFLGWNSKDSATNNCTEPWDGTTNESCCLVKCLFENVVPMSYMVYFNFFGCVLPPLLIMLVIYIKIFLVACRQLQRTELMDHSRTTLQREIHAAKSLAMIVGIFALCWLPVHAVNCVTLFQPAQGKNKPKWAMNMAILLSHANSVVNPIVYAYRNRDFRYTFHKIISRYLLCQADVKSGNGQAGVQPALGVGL

[2] = target: T2, Adenosine receptor A3 (Homo sapiens, UniProt P0DMS8); assay: Displacement of [3H]PSB11 from human recombinant adenosine A3 receptor expressed in CHO cells; assay type: cell-based
T2 sequence (P0DMS8 whole entry): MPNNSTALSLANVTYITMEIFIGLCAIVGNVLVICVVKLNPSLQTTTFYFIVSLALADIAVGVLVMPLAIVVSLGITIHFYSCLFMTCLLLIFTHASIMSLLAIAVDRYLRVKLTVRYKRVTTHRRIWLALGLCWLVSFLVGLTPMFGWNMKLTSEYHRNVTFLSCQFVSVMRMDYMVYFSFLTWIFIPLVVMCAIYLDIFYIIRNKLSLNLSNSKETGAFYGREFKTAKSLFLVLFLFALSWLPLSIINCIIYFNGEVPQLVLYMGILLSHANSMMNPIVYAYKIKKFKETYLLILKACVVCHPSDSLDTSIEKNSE

[3] = target: Adenosine receptors; A1 & A2b (Homo sapiens) (UniProt P30542+P29275); assay: Selectivity for human adenosine A2B receptor over adenosine A1 receptor; assay type: protein assay
[4] = target: Adenosine receptors; A2b & A3 (Homo sapiens) (UniProt P29275+P0DMS8); assay: Selectivity for human adenosine A2B receptor over adenosine A3 receptor; assay type: protein assay
[5] = target: T3, Adenosine receptor A3 (Homo sapiens) (UniProt P0DMS8); assay: Inhibition of [3H]PSB11 binding to human recombinant adenosine A3 receptor in CHO cells at >=1 uM; assay type: cell-based
T3 sequence (whole entry): T2 sequence (P0DMS8 whole entry)

[6] = target: T4, Adenosine receptor A1 (Rattus norvegicus, UniProt P25099); assay: Displacement of [3H]CCPA from adenosine A1 receptor in rat brain cortical membranes; assay type: cell membranes, Membrane
T4 sequence (P25099 whole entry): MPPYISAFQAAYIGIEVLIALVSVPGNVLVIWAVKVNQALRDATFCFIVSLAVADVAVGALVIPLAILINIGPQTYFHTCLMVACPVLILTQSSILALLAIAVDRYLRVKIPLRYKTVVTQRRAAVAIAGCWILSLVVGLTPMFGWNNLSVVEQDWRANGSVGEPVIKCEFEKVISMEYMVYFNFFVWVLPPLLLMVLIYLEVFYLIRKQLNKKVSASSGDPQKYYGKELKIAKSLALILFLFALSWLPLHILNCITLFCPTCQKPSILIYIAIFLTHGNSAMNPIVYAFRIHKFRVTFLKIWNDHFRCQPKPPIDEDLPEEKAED

[7] = target: T5, Adenosine receptor A1 (Homo sapiens, UniProt P30542); assay: Displacement of [3H]CCPA from human recombinant adenosine A1 receptor expressed in CHO cells; assay type: cell-based
T5 sequence (P30542 whole entry): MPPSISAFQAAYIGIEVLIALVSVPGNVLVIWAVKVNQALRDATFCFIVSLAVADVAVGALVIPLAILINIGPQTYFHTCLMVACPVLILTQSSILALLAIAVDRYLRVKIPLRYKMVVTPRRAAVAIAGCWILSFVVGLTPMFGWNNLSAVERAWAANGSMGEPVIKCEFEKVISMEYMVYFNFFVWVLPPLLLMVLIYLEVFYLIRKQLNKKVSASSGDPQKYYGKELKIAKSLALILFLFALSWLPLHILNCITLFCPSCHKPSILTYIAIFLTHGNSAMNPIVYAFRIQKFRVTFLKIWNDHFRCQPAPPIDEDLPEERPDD

[8] = target: Adenosine receptor A2a (Rattus norvegicus, UniProt P30543); assay: Displacement of [3H]MSX2 from adenosine A2A receptor in rat brain striatal membranes; assay type: cell membranes, Membrane
Sequence of Adenosine receptor A2a (Rattus norvegicus, UniProt P30543) (P30543 whole entry): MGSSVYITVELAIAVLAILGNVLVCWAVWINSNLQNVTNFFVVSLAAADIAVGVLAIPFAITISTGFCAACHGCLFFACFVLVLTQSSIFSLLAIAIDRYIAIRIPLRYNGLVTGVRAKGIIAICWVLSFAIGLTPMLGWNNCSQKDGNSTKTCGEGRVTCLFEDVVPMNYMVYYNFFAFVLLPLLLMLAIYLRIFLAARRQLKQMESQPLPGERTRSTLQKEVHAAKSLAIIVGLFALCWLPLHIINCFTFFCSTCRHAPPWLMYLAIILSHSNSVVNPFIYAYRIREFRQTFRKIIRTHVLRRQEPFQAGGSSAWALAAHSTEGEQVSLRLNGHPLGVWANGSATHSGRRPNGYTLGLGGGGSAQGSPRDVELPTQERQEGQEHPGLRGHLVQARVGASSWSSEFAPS

[9] = target: Adenosine receptor A2a (Homo sapiens, UniProt P29274); assay: Displacement of [3H]MSX2 from human recombinant adenosine A2A receptor expressed in CHO cells; assay type: cell-based
Sequence of Adenosine receptor A2a (Homo sapiens, UniProt P29274) (P29274 whole entry): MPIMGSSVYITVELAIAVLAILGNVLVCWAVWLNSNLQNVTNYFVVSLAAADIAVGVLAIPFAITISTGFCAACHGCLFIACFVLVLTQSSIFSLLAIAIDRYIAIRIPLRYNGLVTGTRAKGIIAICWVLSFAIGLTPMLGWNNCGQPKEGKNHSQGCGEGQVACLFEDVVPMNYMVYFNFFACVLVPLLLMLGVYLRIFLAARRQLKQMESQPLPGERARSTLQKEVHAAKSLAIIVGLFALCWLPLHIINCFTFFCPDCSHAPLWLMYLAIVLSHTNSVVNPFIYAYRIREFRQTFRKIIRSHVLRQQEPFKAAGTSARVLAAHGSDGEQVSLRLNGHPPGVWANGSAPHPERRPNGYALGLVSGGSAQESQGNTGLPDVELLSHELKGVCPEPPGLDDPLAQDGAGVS

[10] = target: T3, Adenosine receptor A3 (Homo sapiens); assay: (§1) Inhibition of [3H]PSB11 binding to human recombinant adenosine A3 receptor in CHO cells at >=10 uM; assay type: cell-based
[11] = target: T2, Adenosine receptor A3; assay: as §1; assay type: cell-based
[12] = target: T3, Adenosine receptor A3 (Homo sapiens); assay: Inhibition of [3H]PSB11 binding to human recombinant adenosine A3 receptor in CHO cells at >10 uM; assay type: cell-based
[13] = target: T3, Adenosine receptor A3 (Homo sapiens); assay: Inhibition of [3H]PSB11 binding to human recombinant adenosine A3 receptor in CHO cells at >1 uM; assay type: cell-based
[14] = target: T2, Adenosine receptor A3; assay: Displacement of [125I]AB-MECA from human recombinant adenosine A3 receptor expressed in CHO cells; assay type: cell-based

Ki [1] [nM]	Ki [2] [nM]	Ki [6] [nM]	Ki [8] [nM]	Structure (SMILES)	also measured
				CCCCNS(=O)(=O)c1ccc(-c2nc3c(=O)n(C)c(=O)n(C)c3[nH]2)cc1	inhibition [10]: 43%
3.62	≥ 10000	10	297	CCCn1c(=O)[nH]c2[nH]c(-c3ccc(S(=O)(=O)NCCc4ccccc4)cc3)nc2c1=O	Selectivity ratio [3]: 50; Selectivity ratio [4]: > 2700; inhibition [10]: 37%; Ki [7]: 183 nM; Ki [9]: 769 nM
154	≥ 10000	64	182	Cn1c(=O)c2nc(-c3ccc(S(=O)(=O)NCC(=O)O)cc3)[nH]c2n(C)c1=O	inhibition [11]: 41%
31.4	≥ 1000	1.8	23	CCCn1c(=O)[nH]c2[nH]c(-c3ccc(S(=O)(=O)Nc4ccccc4)cc3)nc2c1=O	inhibition [5]: 48%
101	> 10000	100	320	CCCn1c(=O)[nH]c2nc(-c3ccc(S(=O)(=O)NCC(=O)O)cc3)[nH]c2c1=O	
4.48	1080	12	113	Cn1c(=O)c2[nH]c(-c3ccc(S(=O)(=O)NCCc4ccccc4)cc3)nc2n(C)c1=O	Ki [7]: 185 nM; Ki [9]: 32.6 nM
102	> 10000	75	283	CC(C)NS(=O)(=O)c1ccc(-c2nc3c([nH]2)c(=O)n(C)c(=O)n3C)cc1	
				CC(C)NS(=O)(=O)c1ccc(-c2nc3c(=O)n(C)c(=O)n(C)c3[nH]2)cc1	inhibition [12]: 27%
				CCCN(CCC)S(=O)(=O)c1ccc(-c2nc3c(=O)n(CCC)c(=O)[nH]c3[nH]2)cc1	inhibition [13]: 18%
122	≥ 10000	27	165	CCCCNS(=O)(=O)c1ccc(-c2nc3c([nH]2)c(=O)n(C)c(=O)n3C)cc1	
				Cn1c(=O)c2[nH]c(-c3ccc(S(=O)(=O)O)cc3)nc2n(C)c1=O	Ki [14]: 5890 nM
				Cn1c(=O)c2nc(-c3ccc(S(=O)(=O)NCCO)cc3)[nH]c2n(C)c1=O	inhibition [10]: 49%
27.1	≥ 10000	45	287	CCCn1c(=O)[nH]c2[nH]c(-c3ccc(S(=O)(=O)NCCO)cc3)nc2c1=O	inhibition [10]: 36%
250	≥ 10000	98	347	Cn1c(=O)c2[nH]c(-c3ccc(S(=O)(=O)NCCO)cc3)nc2n(C)c1=O	
	> 10000			CCCn1c(=O)[nH]c2nc(-c3ccc(S(=O)(=O)O)cc3)[nH]c2c1=O	Ki [7]: > 10000 nM
53.8	> 1000	5.5	42	CCCN(CCC)S(=O)(=O)c1ccc(-c2nc3[nH]c(=O)n(CCC)c(=O)c3[nH]2)cc1	
				CCCn1c(=O)[nH]c2[nH]c(-c3ccc(S(=O)(=O)NCC(=O)O)cc3)nc2c1=O	inhibition [12]: 25%
3.6	> 1000	260	93.7	CCCn1c(=O)[nH]c2nc(-c3ccc(S(=O)(=O)N4CCN(Cc5ccccc5)CC4)cc3)[nH]c2c1=O	Selectivity ratio [3]: 574; Selectivity ratio [4]: > 278; inhibition [13]: 29%; Ki [7]: 2070 nM; Ki [9]: 484 nM

Structure (SMILES)	Ki [1] [nM]	Ki [2] [nM]	Ki [6] [nM]	Ki [8] [nM]	also measured
CCCn1c(=O)[nH]c2[nH]c(-c3ccc(S(=O)(=O)NCc4ccccc4)cc3)nc2c1=O	4.2	≥ 1000	4.6	26.7	Selectivity ratio [3]: 13; Selectivity ratio [4]: > 200; inhibition [5]: 41%; Ki [7]: 54.8 nM; Ki [9]: 162 nM
